Source: BigSolDB 2.1

Cc1cc(Cl)ccc1OCC(=O)O
solubility (mole fraction)
Conditions | 278.15 K | 283.15 K | 288.15 K | 293.15 K | 298.15 K | 303.15 K | 308.15 K | 313.15 K | 318.15 K | 323.15 K
in acetone | 0.158 | 0.171 | 0.188 | 0.201 | 0.22 | 0.239 | 0.258 | 0.281 | 0.301 | 0.32
in acetonitrile | 0.0254 | 0.0342 | 0.0458 | 0.0607 | 0.0789 | 0.0968 | 0.128 | 0.159 | 0.196 | 0.248
in ethanol | 0.125 | 0.151 | 0.184 | 0.235 | 0.3 | 0.352 | 0.424 | 0.497 | 0.561 | 0.661
in ethyl acetate | 0.101 | 0.104 | 0.116 | 0.127 | 0.146 | 0.17 | 0.192 | 0.221 | 0.25 | 0.299
in ethyl formate | 0.0572 | 0.0618 | 0.0699 | 0.0798 | 0.0914 | 0.107 | 0.123 | 0.14 | 0.164 | 0.204
in isobutanol | 0.0895 | 0.111 | 0.139 | 0.17 | 0.214 | 0.265 | 0.332 | 0.39 | 0.454 | 0.558
in isopropanol | 0.123 | 0.134 | 0.154 | 0.175 | 0.2 | 0.237 | 0.27 | 0.314 | 0.364 | 0.428
in methyl acetate | 0.0958 | 0.106 | 0.12 | 0.134 | 0.149 | 0.17 | 0.2 | 0.234 | 0.271 | 0.318
in n-butyl acetate | 0.0915 | 0.0974 | 0.106 | 0.122 | 0.139 | 0.162 | 0.185 | 0.209 | 0.247 | 0.296
in n-propanol | 0.127 | 0.138 | 0.159 | 0.197 | 0.238 | 0.279 | 0.342 | 0.405 | 0.46 | 0.54
in n-propyl acetate | 0.0958 | 0.103 | 0.112 | 0.127 | 0.144 | 0.161 | 0.182 | 0.211 | 0.243 | 0.297
in toluene | 0.00841 | 0.00904 | 0.011 | 0.0136 | 0.0172 | 0.0214 | 0.0274 | 0.0331 | 0.0419 | 0.0515
